For one experiment, the target named is IP receptor (Homo sapiens, UniProt P43119). Put plainly: IP receptor binding.
The target in the next experiment is FP receptor (Homo sapiens, UniProt P43088). Put plainly: FP receptor binding.
Another experiment deals with T1, EP2 receptor (Homo sapiens, UniProt P43116).
T1 construct: The full length EP2 receptor is made as disclosed in Regan et al; expressed in transfected cells; membranes
Put plainly: Assay for binding to prostaglandin E2 receptors (3H-PGE2 displacement), EP2. As to the method: (§1) All operations are performed at 4° C. […] The cells are lysed by sonification with a Branson Sonifier (Model #250, Branson Ultrasonics Corporation, Danbury, Conn.) in 2 fifteen second bursts. Unlysed cells and debris are removed by centrifugation at 100× g for 10 min. Membranes are then harvested by centrifugation at 45,000× g for 30 minutes. Pelleted membranes are resuspended to 3-10 mg protein per ml, protein concentration being determined of the method of Bradford [Bradford, M., Anal. Biochem., 72, 248 (1976)]. Resuspended membranes are then stored frozen at −80° C. until use.
(§2) Frozen membranes prepared as above are thawed and diluted to 1 mg protein per ml in Buffer A above. […] The membranes are then recovered by filtration through type GF/C glass fiber filters (#1205-401, Wallac, Gaithersburg, Md.) using a Tomtec harvester (Model Mach II/96, Tomtec, Orange, Conn.). […] Each sample is then washed 3 times with 3 ml of [50 mM Tris-HCl (pH 7.4), 10 mM MgCl2, 1 mM EDTA]. The filters are then dried by heating in a microwave oven. To determine the amount of ^3H—prostaglandin bound to the membranes, the dried filters are placed into plastic bags with scintillation fluid and counted in a LKB 1205 Betaplate reader (Wallac, Gaithersburg, Md.).
(§3) The full length EP1 receptor is made as disclosed in Funk et al., Journal of Biological Chemistry, 1993, 268, 26767-26772. […]

Another experiment concerns the target T2, EP4 receptor (Homo sapiens, UniProt P35408).
T2 construct: The full length EP4 receptor is made as disclosed in Bastien; expressed in transfected cells; membranes
The experiment is described as follows: Assay for binding to prostaglandin E2 receptors (3H-PGE2 displacement), EP4. As for the experimental part: as §1, §2, §3

For the next experiment, the system named is osteopenic, OVX rats. The experiment is described as follows: Example One: skeletal effects in osteopenic OVX rats, distal femoral metaphyseal BMC/BMD by DXA. It is filed as in vivo, Sprague-Dawley female rats. The note with it: 10 mg/kg/day subcutaneous injection for 4 weeks. As to the method: Prostaglandin E2 (PGE2) restores bone mass by stimulating both bone formation and bone resorption but in favor of bone formation in ovariectomized (OVX) rat skeleton.
Sprague-Dawley female rats were sham-operated (n=20) or OVX (n=50) at 3 months of age. Five weeks post-surgery, OVX rats were treated (subcutaneous injection) with either vehicle or 3-(3-hydroxy-4-phenyl-butyl)-2-(6-(1 H—tetrazol-5-yl)-hexyl)-cyclopentanone at 10 mg/kg/day for 4 weeks. Distal femoral metaphyseal bone mineral content (BMC) and bone mineral density (BMD) were determined by dual energy x-ray absorptiometry (Hologic QDR-1000/W, Hologic Inc., Waltham, Mass.) according to the methods described by Ke et al., (Droloxifene, a New Estrogen Antagonist/Agonist, Prevents Bone Loss in Ovariectomized Rats, Endocrinology, 136:2435-2441; 1995).

The target in the next experiment is T3, DP receptor (Homo sapiens, UniProt Q13258).
T3 sequence (Q13258 1-359): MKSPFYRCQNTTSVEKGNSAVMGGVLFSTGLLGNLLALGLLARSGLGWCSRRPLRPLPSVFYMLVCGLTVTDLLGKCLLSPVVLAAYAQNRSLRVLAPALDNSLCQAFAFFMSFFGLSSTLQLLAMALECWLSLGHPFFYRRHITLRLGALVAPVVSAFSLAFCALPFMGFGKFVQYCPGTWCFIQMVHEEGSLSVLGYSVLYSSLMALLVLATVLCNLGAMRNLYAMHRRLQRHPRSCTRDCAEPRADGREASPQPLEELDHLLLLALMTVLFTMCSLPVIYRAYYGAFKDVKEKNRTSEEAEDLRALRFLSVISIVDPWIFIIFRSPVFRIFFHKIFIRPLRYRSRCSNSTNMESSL
Put plainly: DP receptor binding.

For a further experiment, the target named is T4, EP1 receptor (Homo sapiens, UniProt P34995).
T4 construct: The full length EP1 receptor is made as disclosed in Funk et al; expressed in transfected cells; membranes
T4 sequence (P34995 1-402): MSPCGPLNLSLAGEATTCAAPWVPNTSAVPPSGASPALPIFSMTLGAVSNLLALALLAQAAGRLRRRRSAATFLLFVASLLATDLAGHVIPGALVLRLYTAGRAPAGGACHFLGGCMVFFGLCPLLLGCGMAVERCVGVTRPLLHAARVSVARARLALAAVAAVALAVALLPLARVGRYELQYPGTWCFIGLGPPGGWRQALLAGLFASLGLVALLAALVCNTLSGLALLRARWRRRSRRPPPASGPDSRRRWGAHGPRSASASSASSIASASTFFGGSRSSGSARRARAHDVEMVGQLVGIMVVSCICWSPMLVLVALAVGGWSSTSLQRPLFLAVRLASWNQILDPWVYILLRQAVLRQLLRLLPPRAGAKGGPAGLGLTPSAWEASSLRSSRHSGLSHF
The experiment is described as follows: Assay for binding to prostaglandin E2 receptors (3H-PGE2 displacement), EP1. As for the experimental part: (§4) All operations are performed at 4° C. […] Louis, Mo.), 1 uM pepstatin A peptide, (Sigma, St. Louis, Mo.), 10 uM elastatinal peptide, (Sigma, St. Louis, Mo.), 100 uM antipain peptide, (Sigma, St. Louis, Mo.)]. The cells are lysed by sonification with a Branson Sonifier (Model #250, Branson Ultrasonics Corporation, Danbury, Conn.) in 2 fifteen second bursts. Unlysed cells and debris are removed by centrifugation at 100× g for 10 min. Membranes are then harvested by centrifugation at 45,000× g for 30 minutes. Pelleted membranes are resuspended to 3-10 mg protein per ml, protein concentration being determined of the method of Bradford [Bradford, M., Anal. Biochem., 72, 248 (1976)]. Resuspended membranes are then stored frozen at -80° C. until use. Frozen membranes prepared as above are thawed and diluted to 1 mg protein per ml in Buffer A above. One volume of membrane preparation is combined with 0.05 volume test compound or buffer and one volume of 3 nM ^3H-prostaglandin E2 (#TRK 431, Amersham, Arlington Heights, Ill.) in Buffer A. The mixture (205 μL total volume) is incubated for 1 hour at 25° C. […] To determine the amount of ^3H-prostaglandin bound to the membranes, the dried filters are placed into plastic bags with scintillation fluid and counted in a LKB 1205 Betaplate reader (Wallac, Gaithersburg, Md.). […]

The next experiment addresses T5, EP3 receptor (Homo sapiens, UniProt P43115).
T5 construct: The full length EP3 receptor is made as disclosed in Regan et al; expressed in transfected cells; membranes
T5 sequence (P43115 1-390): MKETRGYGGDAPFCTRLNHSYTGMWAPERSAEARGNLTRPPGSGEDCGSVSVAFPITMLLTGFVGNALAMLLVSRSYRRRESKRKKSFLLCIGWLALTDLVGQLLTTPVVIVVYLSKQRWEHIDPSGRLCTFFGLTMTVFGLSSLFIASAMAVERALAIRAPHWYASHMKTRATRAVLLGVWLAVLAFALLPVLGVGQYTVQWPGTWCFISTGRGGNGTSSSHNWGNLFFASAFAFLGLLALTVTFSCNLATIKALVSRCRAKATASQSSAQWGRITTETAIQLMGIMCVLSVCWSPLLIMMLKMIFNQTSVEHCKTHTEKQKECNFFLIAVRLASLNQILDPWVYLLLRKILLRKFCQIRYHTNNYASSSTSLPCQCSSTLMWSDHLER
The experiment is described as follows: Assay for binding to prostaglandin E2 receptors (3H-PGE2 displacement), EP3. As for the experimental part: as §4

The source of these data is patent US20010056060A1, “Treatment of osteoporsis with EP2/EP4 receptor selective agonists” (priority 2000, published 2001).

Some results are limits rather than exact numbers.

By IC50 is commonly meant the midpoint of a concentration-inhibition curve. A high value points to weaker potency.

T2 sequence (P35408 whole entry): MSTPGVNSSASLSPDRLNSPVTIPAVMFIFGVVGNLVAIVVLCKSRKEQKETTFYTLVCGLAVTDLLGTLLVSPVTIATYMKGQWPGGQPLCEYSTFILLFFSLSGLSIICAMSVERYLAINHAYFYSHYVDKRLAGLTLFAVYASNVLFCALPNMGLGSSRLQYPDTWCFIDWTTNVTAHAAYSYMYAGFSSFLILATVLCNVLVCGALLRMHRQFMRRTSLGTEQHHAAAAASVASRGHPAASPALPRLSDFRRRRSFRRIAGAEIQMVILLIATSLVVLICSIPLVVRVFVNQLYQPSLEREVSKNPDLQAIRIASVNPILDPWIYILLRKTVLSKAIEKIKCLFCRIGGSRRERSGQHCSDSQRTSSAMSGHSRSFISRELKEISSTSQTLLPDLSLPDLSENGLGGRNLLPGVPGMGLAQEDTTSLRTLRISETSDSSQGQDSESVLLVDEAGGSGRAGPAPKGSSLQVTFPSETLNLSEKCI
T1 sequence (P43116 whole entry): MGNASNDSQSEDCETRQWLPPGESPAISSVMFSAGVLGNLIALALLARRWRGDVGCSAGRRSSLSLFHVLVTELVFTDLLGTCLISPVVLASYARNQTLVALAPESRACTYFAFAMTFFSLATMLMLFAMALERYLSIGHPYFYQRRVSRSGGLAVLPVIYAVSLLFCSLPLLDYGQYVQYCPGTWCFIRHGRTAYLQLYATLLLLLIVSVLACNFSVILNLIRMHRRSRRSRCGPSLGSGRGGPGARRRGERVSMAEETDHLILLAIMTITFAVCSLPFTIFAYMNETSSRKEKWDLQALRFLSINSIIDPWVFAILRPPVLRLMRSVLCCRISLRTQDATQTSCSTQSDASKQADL
Sequence of IP receptor (P43119 whole entry): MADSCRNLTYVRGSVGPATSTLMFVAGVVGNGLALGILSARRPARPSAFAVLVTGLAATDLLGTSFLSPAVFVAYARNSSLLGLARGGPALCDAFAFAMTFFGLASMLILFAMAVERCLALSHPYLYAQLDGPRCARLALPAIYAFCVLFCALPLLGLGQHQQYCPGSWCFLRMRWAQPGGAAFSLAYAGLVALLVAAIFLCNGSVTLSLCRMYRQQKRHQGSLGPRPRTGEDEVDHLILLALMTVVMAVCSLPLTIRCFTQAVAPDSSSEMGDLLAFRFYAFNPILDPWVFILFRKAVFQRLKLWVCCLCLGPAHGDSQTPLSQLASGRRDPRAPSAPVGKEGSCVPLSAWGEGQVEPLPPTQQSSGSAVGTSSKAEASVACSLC
Sequence of FP receptor (P43088 whole entry): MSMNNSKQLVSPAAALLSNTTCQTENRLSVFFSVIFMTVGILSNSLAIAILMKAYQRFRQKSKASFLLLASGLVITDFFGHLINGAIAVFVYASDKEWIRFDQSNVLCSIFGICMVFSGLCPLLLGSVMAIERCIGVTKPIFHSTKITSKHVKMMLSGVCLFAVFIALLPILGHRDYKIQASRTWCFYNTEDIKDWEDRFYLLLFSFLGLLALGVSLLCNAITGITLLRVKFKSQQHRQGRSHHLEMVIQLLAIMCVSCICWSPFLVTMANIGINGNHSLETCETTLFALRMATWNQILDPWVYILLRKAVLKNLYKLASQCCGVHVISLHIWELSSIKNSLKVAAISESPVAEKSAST

In the case of `O=C1CCC(CCC(O)Cc2ccccc2)C1CCCCCCc1nnn[nH]1` (centres unmarked) [3-(3-hydroxy-4-phenyl-butyl)-2-(6-(1 H—tetrazol-5-yl)-hexyl)-cyclopentanone], the IC50 is above 3200 nM at IP receptor; above 3200 nM at FP receptor; 56 nM at EP2 receptor; 70 nM on EP4 receptor; above 3200 nM on DP receptor; above 3200 nM on EP1 receptor. The compound also yielded an IC50 at EP3 receptor above 3200 nM. Also, the “restoration of bone mass to the OVX, osteopenic rat skeleton” value in the experiment on osteopenic, OVX rats is listed as “completely restored the bone mass”. In addition, the “increase in distal femoral metaphyseal BMC as compared with OVX controls” value in the experiment with osteopenic, OVX rats (started 5 weeks post-OVX) is reported as “+42%”. For the same compound, the “increase in distal femoral metaphyseal BMC as compared with pre-treatment OVX controls” value in the experiment with osteopenic, OVX rats (started 5 weeks post-OVX) is “+23%”. Besides, the “increase in distal femoral metaphyseal BMD as compared with OVX controls” value in the experiment on osteopenic, OVX rats (started 5 weeks post-OVX) was “+28%”. For the same compound, in the experiment with osteopenic, OVX rats (started 5 weeks post-OVX), the “increase in distal femoral metaphyseal BMD as compared with pre-treatment OVX controls” value was “+17%”.
In the case of `CS(=O)(=O)N(CCCCCCC(=O)O)CCOc1cc(Cl)cc(Cl)c1` [7-(2-(3,5-dichloro-phenoxy)-ethyl)-methanesulfonyl-amino)-heptanoic acid], on EP2 receptor, the concentration for half-maximal inhibition (IC50) was 17 nM.
Take `O=C(O)CCCCCCN1C(=O)CCC1CCC(O)Cc1ccccc1` (centres unmarked) [7-(2-(3-hydroxy-4-phenyl-butyl)-5-oxo-pyrrolidin-1-yl)-heptanoic acid]: the IC50 on EP4 receptor is 36 nM.
